Patent US11382328B2, “Rapid drug discovery methods for pathogen inactivation” (priority 2019, dated 2022)

System: E. coli strain W3110
Test: Synergy assays: Biolog chemical sensitivity panels with Group IB metal, coefficient of drug interaction (CDI) from relative growth
Assay type: cell-based
Conditions: for CDI (coefficient of drug interaction), gold + biocide: Gold (μM)
[1] = Copper (mM), 1st of 3 copper concentrations (head line not shown), biocide concentration 2 of 4, E. coli
[2] = Copper (mM), 1st of 3 copper concentrations (head line not shown), biocide concentration 3 of 4, E. coli
[3] = Copper (mM), 1st of 3 copper concentrations (head line not shown), biocide concentration 4 of 4, E. coli
[4] = Copper (mM), 2nd of 3 copper concentrations (head line not shown), biocide concentration 1 of 4, E. coli
[5] = Copper (mM), 2nd of 3 copper concentrations (head line not shown), biocide concentration 2 of 4, E. coli
[6] = Copper (mM), 2nd of 3 copper concentrations (head line not shown), biocide concentration 3 of 4, E. coli
[7] = Copper (mM), 2nd of 3 copper concentrations (head line not shown), biocide concentration 4 of 4, E. coli
[8] = Copper (mM), 3rd of 3 copper concentrations (head line not shown), biocide concentration 1 of 4, E. coli
[9] = Copper (mM), 3rd of 3 copper concentrations (head line not shown), biocide concentration 3 of 4, E. coli
[10] = Copper (mM), 3rd of 3 copper concentrations (head line not shown), biocide concentration 4 of 4, E. coli
[11] = first of 3 gold concentrations, biocide concentration 1 of 4
[12] = first of 3 gold concentrations, biocide concentration 2 of 4
[13] = first of 3 gold concentrations, biocide concentration 3 of 4
[14] = first of 3 gold concentrations, biocide concentration 4 of 4
[15] = second of 3 gold concentrations, biocide concentration 1 of 4
[16] = second of 3 gold concentrations, biocide concentration 2 of 4
[17] = second of 3 gold concentrations, biocide concentration 3 of 4
[18] = second of 3 gold concentrations, biocide concentration 4 of 4
[19] = third of 3 gold concentrations, biocide concentration 1 of 4
[20] = third of 3 gold concentrations, biocide concentration 2 of 4
[21] = third of 3 gold concentrations, biocide concentration 3 of 4
[22] = third of 3 gold concentrations, biocide concentration 4 of 4
[23] = Silver 0.5 μM, biocide concentration 1 of 4
[24] = Silver 0.5 μM, biocide concentration 2 of 4
[25] = Silver 0.5 μM, biocide concentration 3 of 4
[26] = Silver 0.5 μM, biocide concentration 4 of 4
[27] = Silver 1.0 μM, biocide concentration 1 of 4
[28] = Silver 1.0 μM, biocide concentration 2 of 4
[29] = Silver 1.0 μM, biocide concentration 3 of 4
[30] = Silver 1.0 μM, biocide concentration 4 of 4
[31] = Silver 5.0 μM, biocide concentration 1 of 4
[32] = Silver 5.0 μM, biocide concentration 2 of 4
[33] = Silver 5.0 μM, biocide concentration 3 of 4
[34] = Silver 5.0 μM, biocide concentration 4 of 4
[35] = Copper (mM), 1st of 3 copper concentrations (head line not shown), biocide concentration 1 of 4, E. coli
[36] = Copper (mM), 3rd of 3 copper concentrations (head line not shown), biocide concentration 2 of 4, E. coli

Row | Compound | CDI (coefficient of drug interaction) [1] | CDI (coefficient of drug interaction) [2] | CDI (coefficient of drug interaction) [3] | CDI (coefficient of drug interaction) [4] | CDI (coefficient of drug interaction) [5] | CDI (coefficient of drug interaction) [6] | CDI (coefficient of drug interaction) [7] | CDI (coefficient of drug interaction) [8] | CDI (coefficient of drug interaction) [9] | CDI (coefficient of drug interaction) [10] | CDI (coefficient of drug interaction), gold + biocide [11] | CDI [23] | CDI [24] | CDI [25] | CDI [26] | CDI [28] | CDI [29] | CDI [30] | CDI [33] | CDI [34] | also measured
1 | CSCCC(N)C(=O)NO (racemic) [D,L-methionine hydroxamate] | 1.19 | 1.02 | 0.91 | 0.84 | 0.95 | 2.26 | 3.51 | 0.98 | 1.51 | 1.54 | 1.08 | 0.88 | 1.04 | Tox | Tox | 0.99 | Tox | Tox | Tox | Tox | CDI (coefficient of drug interaction), gold + biocide [12]: 1.10; CDI (coefficient of drug interaction), gold + biocide [13]: 1.06; CDI (coefficient of drug interaction), gold + biocide [14]: Tox; CDI (coefficient of drug interaction), gold + biocide [15]: 1.03; CDI (coefficient of drug interaction), gold + biocide [16]: 1.04; CDI (coefficient of drug interaction), gold + biocide [17]: 1.08; CDI (coefficient of drug interaction), gold + biocide [18]: Tox; CDI (coefficient of drug interaction), gold + biocide [19]: 0.92; CDI (coefficient of drug interaction), gold + biocide [20]: 0.96; CDI (coefficient of drug interaction), gold + biocide [21]: 0.93; CDI (coefficient of drug interaction), gold + biocide [22]: Tox; CDI [27]: 1.04; CDI [31]: 0.71; CDI [32]: 0.42
2 | colistin | 0.98 | Tox | Tox | 0.82 | 0.87 | Tox | Tox | 0.63 | Tox | Tox | 1.10 | 0.95 | 0.75 | Tox | Tox | 0.24 | Tox | Tox | Tox | Tox | CDI (coefficient of drug interaction) [35]: 0.95; CDI (coefficient of drug interaction) [36]: 0.45; CDI (coefficient of drug interaction), gold + biocide [12]: 1.18; CDI (coefficient of drug interaction), gold + biocide [13]: Tox; CDI (coefficient of drug interaction), gold + biocide [14]: Tox; CDI (coefficient of drug interaction), gold + biocide [16]: 0.95; CDI (coefficient of drug interaction), gold + biocide [17]: Tox; CDI (coefficient of drug interaction), gold + biocide [18]: Tox; CDI (coefficient of drug interaction), gold + biocide [19]: 1.09; CDI (coefficient of drug interaction), gold + biocide [20]: 0.14; CDI (coefficient of drug interaction), gold + biocide [21]: Tox; CDI (coefficient of drug interaction), gold + biocide [22]: Tox; CDI [27]: 0.97; CDI [31]: 0.84; CDI [32]: 0.08
3 | O=c1ccc2ccccc2o1 [coumarin] | – | – | – | – | – | – | – | – | – | – | – | – | – | – | – | – | – | – | – | – | CDI (coefficient of drug interaction) (Gold 50 μM, biocide concentration 4 of 4, E. coli): Tox
4 | NC(CCC(=O)NO)C(=O)O [L-glutamic-γ-hydroxamate] | 1.16 | 0.97 | 1.01 | 0.87 | 0.90 | 0.92 | 0.96 | 0.75 | 0.69 | 0.74 | 1.03 | 0.93 | 0.75 | 0.61 | 0.49 | 0.97 | 0.93 | 0.71 | 0.71 | 0.34 | CDI (coefficient of drug interaction) [35]: 1.14; CDI (coefficient of drug interaction) [36]: 0.80; CDI (coefficient of drug interaction), gold + biocide [12]: 1.03; CDI (coefficient of drug interaction), gold + biocide [13]: 1.08; CDI (coefficient of drug interaction), gold + biocide [14]: 1.08; CDI (coefficient of drug interaction), gold + biocide [15]: 1.02; CDI (coefficient of drug interaction), gold + biocide [16]: 1.01; CDI (coefficient of drug interaction), gold + biocide [17]: 1.09; CDI (coefficient of drug interaction), gold + biocide [18]: 1.04; CDI (coefficient of drug interaction), gold + biocide [19]: 1.01; CDI (coefficient of drug interaction), gold + biocide [20]: 1.01; CDI (coefficient of drug interaction), gold + biocide [21]: 1.02; CDI (coefficient of drug interaction), gold + biocide [22]: 1.01; CDI [31]: 1.00; CDI [32]: 0.85
5 | O=S(=O)(F)Cc1ccccc1 [PMSF] | 0.71 | 0.62 | 0.71 | 0.59 | 0.58 | 0.37 | 0.46 | 0.41 | 0.34 | 0.38 | – | 0.91 | 0.92 | 1.10 | 0.35 | 1.10 | 1.06 | 0.55 | 1.25 | 0.60 | CDI (coefficient of drug interaction) [35]: 0.76; CDI (coefficient of drug interaction) [36]: 0.42; CDI (coefficient of drug interaction) (Gold section of Table 5, first of three gold concentrations (μM, value not given), biocide concentration 1 of 4): 1.07; CDI (coefficient of drug interaction) (Gold section of Table 5, first of three gold concentrations (μM, value not given), biocide concentration 2 of 4): 0.96; CDI (coefficient of drug interaction) (Gold section of Table 5, first of three gold concentrations (μM, value not given), biocide concentration 3 of 4): 0.93; CDI (coefficient of drug interaction) (Gold section of Table 5, first of three gold concentrations (μM, value not given), biocide concentration 4 of 4): 0.74; CDI (coefficient of drug interaction) (Gold section of Table 5, second of three gold concentrations (μM, value not given), biocide concentration 1 of 4): 1.03; CDI (coefficient of drug interaction) (Gold section of Table 5, second of three gold concentrations (μM, value not given), biocide concentration 2 of 4): 1.05; CDI (coefficient of drug interaction) (Gold section of Table 5, second of three gold concentrations (μM, value not given), biocide concentration 3 of 4): 1.11; CDI (coefficient of drug interaction) (Gold section of Table 5, second of three gold concentrations (μM, value not given), biocide concentration 4 of 4): 0.85; CDI (coefficient of drug interaction) (Gold section of Table 5, third of three gold concentrations (μM, value not given), biocide concentration 1 of 4): 1.07; CDI (coefficient of drug interaction) (Gold section of Table 5, third of three gold concentrations (μM, value not given), biocide concentration 2 of 4): 1.16; CDI (coefficient of drug interaction) (Gold section of Table 5, third of three gold concentrations (μM, value not given), biocide concentration 3 of 4): 1.21; CDI (coefficient of drug interaction) (Gold section of Table 5, third of three gold concentrations (μM, value not given), biocide concentration 4 of 4): 2.21; CDI [27]: 1.03
